In patent US12583818B2 (DAEGU-GYEONGBUK MEDICAL INNOVATION FOUNDATION, priority 2020, dated 2026):

Molecular target: T1, Pin1 (Homo sapiens, UniProt Q13526)
T1 construct: purchased Anaspec
Experiment: Evaluation of Pin1 enzyme inhibitory activity (Sensolyte Green Pin1 assay kit)
Type: biochemical
Conditions: concentration at which the Pin1 enzyme activity is inhibited; 2 hours at room temperature, fluorescence 490 nm/520 nm; read-out: Pin 1 inhibition
Method: In order to evaluate the Pin1 enzyme inhibitory activity of the compound represented by formula 1 according to the present invention, the following experiment was performed, and the results are shown in Table 2 below.
The enzyme activity of Pin1 protein was measured using a sensolyte Green Pin1 assay kit of Anaspec. The substrate was diluted in a buffer at a ratio of 1:100 to prepare a concentration of 1 μM, and the protein was diluted in a buffer at a ratio of 1:20 to prepare a concentration of 50 μg/ml. In addition, a developing solution was prepared by diluting thereof in a buffer at a ratio of 1:100.
The compound prepared in each example was diluted with DMSO and prepared at a concentration of 100 μM, 10 μM, 1 μM or 0.1 μM using a buffer. After sequentially adding 10 μl of the compound prepared in each Example diluted to four concentrations according to the above method, 10 μl of Pin1 protein, and 30 μl of the developing solution to each well of a black 96-well plate, […]. Finally, 50 μl of the substrate was added to each well of the plate, and the enzyme reaction was carried out after shaking the plate for 10 seconds.
Then, the plate was incubated for 2 hours at room temperature in an environment without light, and the fluorescence values at 490 nm/520 nm wavelength were measured using a device of Synergy Neo […]. The results are shown in Table 2 below by dividing the grades of A to D for each concentration (μM) at which the Pin1 enzyme activity is inhibited.

T1 sequence (Q13526 whole entry): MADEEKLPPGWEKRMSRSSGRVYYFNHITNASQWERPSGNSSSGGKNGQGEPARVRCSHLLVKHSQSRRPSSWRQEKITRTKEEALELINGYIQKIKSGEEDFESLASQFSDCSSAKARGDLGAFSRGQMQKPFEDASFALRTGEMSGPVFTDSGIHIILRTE

| IC50 [µM] | Compound |
| --- | --- |
| > 100 | CN(C)CCCOc1ccc(S(=O)(=O)NCCc2ccccc2)cc1 [Example 14, 4-(3-(dimethylamino)propoxy)-N-phenethylbenzenesulfonamide] |
| > 100 | CN(C)CCCOc1ccc(S(=O)(=O)NCCCc2ccccc2)cc1 [Example 15, 4-(3-(dimethylamino)propoxy)-N-(3-phenylpropyl)benzenesulfonamide] |
| > 100 | COC(=O)c1ccc(CCNS(=O)(=O)c2ccc(OCCCN(C)C)cc2)cc1 [Example 16, methyl 4-(2-(4-(3-(dimethylamino)propoxy)phenylsulfonamido)ethyl)benzoate] |
| > 100 | CN(C)CCCOc1ccc(S(=O)(=O)NCCc2ccc(C(=O)O)cc2)cc1 [Example 17, 4-(2-(4-(3-(dimethylamino)propoxy)phenylsulfonamido)ethyl)benzoic acid] |
| > 100 | CN(C)CCCOc1ccc(S(=O)(=O)NCCCN2CCCC2=O)cc1 [Example 18, 4-(3-(dimethylamino)propoxy)-N-(3-(2-oxopyrrolidin-1-yl)propyl)benzenesulfonamide] |
| 10 to 100 | CN(C)CCOc1ccc(S(=O)(=O)NCCCc2c[nH]c3ccccc23)cc1 [Example 21, N-(3-(1H-indol-3-yl)propyl)-4-(2-(dimethylamino)ethoxy)benzenesulfonamide] |
| > 100 | CCCCOc1ccc(S(=O)(=O)NCCc2nc3ccccc3[nH]2)cc1 [Example 23] |
| 10 to 100 | CC(C)CCOc1ccc(S(=O)(=O)NCCCc2c[nH]c3ccccc23)cc1 [Example 26, N-(3-(1H-indol-3-yl)propyl)-4-(isopentyloxy)benzenesulfonamide] |
| 10 to 100 | CCCCCOc1ccc(S(=O)(=O)NCCCc2c[nH]c3ccccc23)cc1 [Example 27, N-(3-(1H-indol-3-yl)propyl)-4-(pentyloxy)benzenesulfonamide] |
| > 100 | O=S(=O)(NCCCc1c[nH]c2ccccc12)c1ccc(OCCCN2CCOCC2)cc1 [Example 30, N-(3-(1H-indol-3-yl)propyl)-4-(3-morpholinopropoxy)benzenesulfonamide] |
| > 100 | CN(C)CCCOc1ccc(S(=O)(=O)NCCc2nc3ccccc3[nH]2)cc1 [Example 37, N-(2-(1H-benzo[d]imidazol-2-yl)ethyl)-4-(3-(dimethylamino)propoxy)benzenesulfonamide] |
| > 100 | CN(C)CCCOc1ccc(S(=O)(=O)NCCc2cc3ccccc3[nH]2)cc1 [Example 38, N-(2-(1H-indol-2-yl)ethyl)-4-(3-(dimethylamino)propoxy)benzenesulfonamide] |
| > 100 | CN(C)CCCOc1ccc(S(=O)(=O)NCCCn2ccc3ccccc32)cc1 [Example 39, N-(3-(1H-indol-1-yl)propyl)-4-(3-(dimethylamino)propoxy)benzenesulfonamide] |
| > 100 | CN(C)CCCOc1ccc(S(=O)(=O)NCCCn2cnc3ccccc32)cc1 [Example 40, N-(3-(1H-benzo[d]imidazol-1-yl)propyl)-4-(3-(dimethylamino)propoxy)benzenesulfonamide] |
| > 100 | CN1CCN(CCCOc2ccc(S(=O)(=O)NCCCn3ccc4ccccc43)cc2)CC1 [Example 41, N-(3-(1H-indol-1-yl)propyl)-4-(3-(4-methylpiperazin-1-yl)propoxy)benzenesulfonamide] |
| > 100 | CN1CCN(CCCOc2ccc(S(=O)(=O)NCCCn3cnc4ccccc43)cc2)CC1 [Example 42, N-(3-(1H-benzo[d]imidazol-1-yl)propyl)-4-(3-(4-methylpiperazin-1-yl)propoxy)benzenesulfonamide] |
| 10 to 100 | O=S(=O)(NCCCc1c[nH]c2ccccc12)c1ccc(OCCCN2CCCCC2)cc1 [Example 43, N-(3-(1H-indol-3-yl)propyl)-4-(3-(piperidin-1-yl)propoxy)benzenesulfonamide] |
| > 100 | CN(C)CCCOc1ccc(S(=O)(=O)NCCCc2cn(C)c3ccccc23)cc1 [Example 46, 4-(3-(dimethylamino)propoxy)-N-(3-(1-methyl-1H-indole-3-yl)propyl)benzenesulfonamide] |
| > 100 | O=S(=O)(NCCCc1c[nH]c2ccccc12)c1ccc(Br)cc1 [Example 47, N-(3-(1H-indole-3-yl)propyl)-4-bromobenzenesulfonamide] |
| 10 to 100 | CC(C)N1CCN(CCCOc2ccc(S(=O)(=O)NCCCc3c[nH]c4ccccc34)cc2)CC1 [Example 48, N-(3-(1H-indol-3-yl)propyl)-4-(3-(4-isopropylpiperazin-1-yl)propoxy)benzenesulfonamide] |
| 10 to 100 | COc1ccc2[nH]cc(CCNS(=O)(=O)c3ccc(OCCCN4CCN(C)CC4)cc3)c2c1 [Example 49, N-(2-(5-methoxy-1H-indol-3-yl)ethyl)-4-(3-(4-methylpiperazin-1-yl)propoxy)benzenesulfonamide] |
| 10 to 100 | CN1CCN(CCCOc2ccc(S(=O)(=O)NCCc3c[nH]c4ccccc34)cc2)CC1 [Example 50, N-(2-(1H-indol-3-yl)ethyl)-4-(3-(4-methylpiperazin-1-yl)propoxy)benzenesulfonamide] |

| Compound | IC50 [µM] |
| --- | --- |
| CCCCOc1ccc(S(=O)(=O)NCCCc2ccc(-c3ccccc3)cc2)cc1 [Example 1, N-(3-([1,1′-biphenyl]-4-yl)propyl)-4-butoxybenzenesulfonamide] | > 100 |
| CCCCOc1ccc(S(=O)(=O)NCCCN2CCN(C(C)C)CC2)cc1 [Example 2, 4-butoxy-N-(3-(4-isopropylpiperazin-1-yl)propyl)benzenesulfonamide] | > 100 |
| CCCCOc1ccc(S(=O)(=O)NCCCc2ccc(Cl)cc2)cc1 [Example 3, 4-butoxy-N-(3-(4-chlorophenyl)propyl)benzenesulfonamide] | > 100 |
| CCCCOc1ccc(S(=O)(=O)NCCCC2CCCCC2)cc1 [Example 4, 4-butoxy-N-(3-cyclohexylpropyl)benzenesulfonamide] | > 100 |
| CCCCOc1ccc(S(=O)(=O)NCCCc2cccnc2)cc1 [Example 5, 4-butoxy-N-(3-(pyridin-3-yl)propyl)benzensulfonamide] | > 100 |
| CCCCOc1ccc(S(=O)(=O)NCCCN2CCOCC2)cc1 [Example 6, 4-butoxy-N-(3-morpholinopropyl)benzenesulfonamide] | > 100 |
| CCCCOc1ccc(S(=O)(=O)NCCc2ccc(N3CCOCC3)cc2)cc1 [Example 7, 4-butoxy-N-(4-morpholinophenethyl)benzenesulfonamide] | > 100 |
| CCCCOc1ccc(S(=O)(=O)NCCc2ccc(C(=O)O)cc2)cc1 [Example 8, 4-(2-(4-butoxyphenylsulfonamido)ethyl)benzoic acid] | > 100 |
| CCCCOc1ccc(S(=O)(=O)NCCc2ccc(C(=O)OC)cc2)cc1 [Example 9, methyl 4-(2-(4-butoxyphenylsulfonamido)ethyl)benzoate] | > 100 |
| CCCCOc1ccc(S(=O)(=O)NCCN2CCC(Cc3ccccc3)CC2)cc1 [Example 10, N-(2-(4-benzylpiperidin-1-yl)ethyl)-4-butoxybenzenesulfonamide] | > 100 |
| CCCCOc1ccc(S(=O)(=O)NCCC(O)c2ccccc2)cc1 (stereo not shown) [Example 11, 4-butoxy-N-(3-hydroxy-3-phenylpropyl)benzenesulfonamide] | 10 to 100 |
| CCCCOc1ccc(S(=O)(=O)NCCC(=O)c2ccccc2)cc1 [Example 12, 4-butoxy-N-(3-oxo-3-phenylpropyl)benzenesulfonamide] | 10 to 100 |
| CCCCOc1ccc(S(=O)(=O)NCCCN2CCCC2=O)cc1 [Example 13, 4-butoxy-N-(3-(2-oxopyrrolidin-1-yl)propyl)benzenesulfonamide] | > 100 |
| CCCCOc1ccc(S(=O)(=O)NCCCc2cccc3ccccc23)cc1 [Example 19, 4-butoxy-N-(3-(naphthalen-1-yl)propyl)benzenesulfonamide] | > 100 |
| CCCCOc1ccc(S(=O)(=O)NCCCc2c[nH]c3ccccc23)cc1 [Example 20, N-(3-(1H-indol-3-yl)propyl)-4-butoxybenzenesulfonamide] | 10 to 100 |
| CCCCOc1ccc(S(=O)(=O)NCCc2c[nH]c3ccccc23)cc1 [Example 24, N-(2-(1H-indol-3-yl)ethyl)-4-butoxybenzenesulfonamide] | > 100 |
| CCCCOc1ccc(S(=O)(=O)NCCc2cc3ccccc3[nH]2)cc1 [Example 25, N-(2-(1H-indol-2-yl)ethyl)-4-butoxybenzenesulfonamide] | > 100 |
| CCCCOc1ccc(S(=O)(=O)NCCCc2nc3ccccc3[nH]2)cc1 [Example 28, N-(3-(1H-benzo[d]imidazol-2-yl)propyl)-4-butoxybenzenesulfonamide] | > 100 |
| CCCCOc1ccc(S(=O)(=O)NCCc2c[nH]c3ccc(O)cc23)cc1 [Example 29, 4-butoxy-N-(2-(5-hydroxy-1H-indol-3-yl)ethyl)benzenesulfonamide] | > 100 |
| CCCCOc1ccc(S(=O)(=O)NCCCn2ccc3ccccc32)cc1 [Example 32, N-(3-(1H-indol-1-yl)propyl)-4-butoxybenzenesulfonamide] | > 100 |
| CCCCOc1ccc(S(=O)(=O)NCCCn2cnc3ccccc32)cc1 [Example 33, N-(3-(1H-benzo[d]imidazol-1-yl)propyl)-4-butoxybenzenesulfonamide] | > 100 |
